How the values were obtained:
TEAD4 = TEAD4 (Homo sapiens (Human), UniProt Q15561); test: TR-FRET lipid pocket probe competition assay (Lipid HTRF), TEAD4; assay type: binding; details: 4 hours pre-incubation; read-out: Lipid HTRF TEAD4 IC50;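 further: His-tagged TEAD4 with biotinylated lipid-pocket probe, read by Europium anti-His and XL665 streptavidin, where probe displacement lowers the TR-FRET signal, IC50 from a four-parameter fit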
Method: (§1) His-tagged TEAD proteins are pre-incubated with TEAD project compounds for 30 minutes or 4 hours at room temperature. Biotinylated lipid pocket probes are then added to the TEAD/Compound mixture and incubated for 60 minutes at room temperature. The lipid pocket probe competes with the test compound for the TEAD lipid pocket until equilibrium is reached. After 60 minutes, Europium labelled anti-His (Perkin Elmer #AD0110) and XL665 labelled streptavidin (CIS Bio 610SAXAC) are added to the TEAD/test compound/lipid pocket mixture and incubated for 30 minutes or 4 hours. […] If a TEAD lipid pocket binder such as binds and displaces the lipid pocket probe, the disruption of the TEAD:probe interaction results in a decrease in TR-FRET signal. The potency of compounds as TEAD lipid pocket binders is determined by IC50 value generated using a non-linear 4 parameter curve fit.

TEAD3 = TEAD3 (Homo sapiens (Human), UniProt Q99594); test: TR-FRET lipid pocket probe competition assay (Lipid HTRF), TEAD3; assay type: binding; details: 4 hours pre-incubation; read-out: Lipid HTRF TEAD3 IC50
TEAD1 = TEAD1 (Homo sapiens (Human), UniProt P28347); test: TR-FRET lipid pocket probe competition assay (Lipid HTRF), TEAD1; assay type: binding; details: 4 hours pre-incubation; read-out: Lipid HTRF TEAD1 IC50;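 further: His-tagged TEAD1 with biotinylated probe, detected via Europium anti-His and XL665 streptavidin, probe displacement lowers TR-FRET signal, IC50 from four-parameter nonlinear fit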
Method: as §1

TEAD2 = TEAD2 (Homo sapiens (Human), UniProt Q15562);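 further: TR-FRET competition assay with His-tagged TEAD protein and a biotinylated lipid pocket probe, compound pre-incubated 30 min or 4 h at room temperature, displacement lowers signal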
Sequence of TEAD2 (Q15562 whole entry, species assumed): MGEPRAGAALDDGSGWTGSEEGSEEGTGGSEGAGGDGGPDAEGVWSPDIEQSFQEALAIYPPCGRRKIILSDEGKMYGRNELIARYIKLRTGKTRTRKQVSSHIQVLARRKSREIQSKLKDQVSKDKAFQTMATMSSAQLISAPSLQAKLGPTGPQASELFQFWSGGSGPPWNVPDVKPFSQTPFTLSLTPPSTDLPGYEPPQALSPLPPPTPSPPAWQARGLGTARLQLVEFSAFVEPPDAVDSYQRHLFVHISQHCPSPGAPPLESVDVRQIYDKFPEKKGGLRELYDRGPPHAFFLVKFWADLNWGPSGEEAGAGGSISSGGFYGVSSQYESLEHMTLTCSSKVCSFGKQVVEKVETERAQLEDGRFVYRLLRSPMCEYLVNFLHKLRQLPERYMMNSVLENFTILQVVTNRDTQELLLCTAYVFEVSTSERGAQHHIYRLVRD

Sequence of TEAD3 (Q99594 whole entry, species assumed): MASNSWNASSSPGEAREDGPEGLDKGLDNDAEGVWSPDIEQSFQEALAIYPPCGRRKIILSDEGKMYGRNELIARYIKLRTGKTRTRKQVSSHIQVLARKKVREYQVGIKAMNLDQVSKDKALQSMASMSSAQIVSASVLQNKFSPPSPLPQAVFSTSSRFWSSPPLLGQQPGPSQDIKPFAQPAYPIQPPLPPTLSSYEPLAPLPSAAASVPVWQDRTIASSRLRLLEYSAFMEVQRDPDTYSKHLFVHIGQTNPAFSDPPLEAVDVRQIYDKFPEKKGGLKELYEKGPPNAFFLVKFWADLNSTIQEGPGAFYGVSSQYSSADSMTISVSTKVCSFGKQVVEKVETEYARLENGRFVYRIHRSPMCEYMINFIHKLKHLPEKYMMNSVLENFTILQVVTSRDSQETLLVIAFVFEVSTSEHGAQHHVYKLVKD
Sequence of TEAD4 (Q15561 whole entry, species assumed): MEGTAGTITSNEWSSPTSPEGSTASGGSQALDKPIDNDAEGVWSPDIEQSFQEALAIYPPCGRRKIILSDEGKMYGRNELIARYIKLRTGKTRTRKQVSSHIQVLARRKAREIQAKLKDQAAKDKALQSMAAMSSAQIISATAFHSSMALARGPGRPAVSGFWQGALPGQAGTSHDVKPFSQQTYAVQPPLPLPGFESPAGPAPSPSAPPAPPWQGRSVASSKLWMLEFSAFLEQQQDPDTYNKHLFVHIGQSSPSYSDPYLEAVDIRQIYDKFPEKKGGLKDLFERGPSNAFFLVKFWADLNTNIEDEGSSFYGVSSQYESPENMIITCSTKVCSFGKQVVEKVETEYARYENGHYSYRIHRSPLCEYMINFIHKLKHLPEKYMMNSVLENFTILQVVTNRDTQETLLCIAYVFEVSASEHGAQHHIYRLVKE
Sequence of TEAD1 (P28347 whole entry, species assumed): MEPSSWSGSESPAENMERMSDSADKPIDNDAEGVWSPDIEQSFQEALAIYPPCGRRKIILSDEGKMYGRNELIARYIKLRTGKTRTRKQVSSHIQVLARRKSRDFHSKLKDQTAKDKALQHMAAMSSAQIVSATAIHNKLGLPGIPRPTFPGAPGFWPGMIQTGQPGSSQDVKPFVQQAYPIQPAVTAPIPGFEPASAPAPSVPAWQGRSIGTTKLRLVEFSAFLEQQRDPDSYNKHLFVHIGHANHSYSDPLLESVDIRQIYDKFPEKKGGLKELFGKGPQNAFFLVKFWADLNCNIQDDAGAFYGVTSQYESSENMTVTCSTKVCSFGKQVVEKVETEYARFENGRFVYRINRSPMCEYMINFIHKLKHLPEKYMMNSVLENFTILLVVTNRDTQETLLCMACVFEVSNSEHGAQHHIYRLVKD

| SMILES | IC50 (TEAD4) | IC50 (TEAD3) | IC50 (TEAD1) | IC50 (TEAD2) |
| --- | --- | --- | --- | --- |
| C=C(F)C(=O)N1CC(c2nn(-c3ccc(OC(F)(F)F)cc3)c3nccc([C@H](O)CO)c23)C1 [Compound 31, (S)-1-(3-(4-(1,2-dihydroxyethyl)-1-(4-(trifluoromethoxy)phenyl)-1H-pyrazolo[3,4-b]pyridin-3-yl)azetidin-1-yl)-2-fluoroprop-2-en-1-one] | 25.5 nM | 62 nM | 35 nM | 32 nM |
| C=CC(=O)NCc1nn(-c2ccc(OC(F)(F)F)cc2)c2nccc(N3CC(O)(CO)C3)c12 [Compound 124, N-((4-(3-hydroxy-3-(hydroxymethyl)azetidin-1-yl)-1-(4-(trifluoromethoxy)phenyl)-1H-pyrazolo[3,4-b]pyridin-3-yl)methyl)acrylamide] | 9.9 nM | 930 nM | 41 nM | 200 nM |
| C=CC(=O)NCc1nn(-c2ccc(S(F)(F)(F)(F)F)cc2)c2cccc(CO)c12 [Compound 5, N-((4-(hydroxymethyl)-1-(4-(pentafluoro-λ^6-sulfanyl)phenyl)-1H-indazol-3-yl)methyl)acrylamide] | 37 nM | 270 nM | 17 nM | 310 nM |
| C=C(F)C(=O)N1CC(c2nn(-c3ccc(OC(F)(F)F)cc3)c3nccc(C#N)c23)C1 [Compound 80, 3-(1-(2-fluoroacryloyl)azetidin-3-yl)-1-(4-(trifluoromethoxy)phenyl)-1H-pyrazolo[3,4-b]pyridine-4-carbonitrile] | 16 nM | 29 nM | 18 nM | 68 nM |
| O=C(/C=C/Cl)N1CC(c2nn(-c3ccc(OC(F)(F)F)cc3)c3nccc(CO)c23)C1 [Compound 102, (E)-3-Chloro-1-(3-(4-(hydroxymethyl)-1-(4-(trifluoromethoxy)phenyl)-1H-pyrazolo[3,4-b]pyridin-3-yl)azetidin-1-yl)prop-2-en-1-one] | 3.3 nM | 8.8 nM | 10 nM | 3.5 nM |
| C=CC(=O)NCc1nn(-c2ccc(OC(F)(F)F)cc2)c2nccc(-c3cnn(C)c3)c12 [Compound 164, N-((4-(1-methyl-1H-pyrazol-4-yl)-1-(4-(trifluoromethoxy)phenyl)-1H-pyrazolo[3,4-b]pyridin-3-yl)methyl)acrylamide] | 32 nM | 2040 nM | 47.9 nM | 129 nM |
| C=CC(=O)N(C)Cc1nn(-c2ccc(OC(F)(F)F)cc2)c2nccc([C@H](O)CO)c12 [Compound 139, (S)-N-((4-(1,2-Dihydroxyethyl)-1-(4-(trifluoromethoxy)phenyl)-1H-pyrazolo[3,4-b]pyridin-3-yl)methyl)-N-methylacrylamide] | 12 nM | 600 nM | 31 nM | 26 nM |
| O=C(/C=C/CO)N1CC(c2nn(-c3ccc(OC(F)(F)F)cc3)c3ccnc(N4CC(O)C4)c23)C1 [Compound 103, (E)-4-hydroxy-1-(3-(4-(3-hydroxyazetidin-1-yl)-1-(4-(trifluoromethoxy)phenyl)-1H-pyrazolo[4,3-c]pyridin-3-yl)azetidin-1-yl)but-2-en-1-one] | 82.5 nM | 50000 nM | 180 nM | 3350 nM |
| O=C(/C=C/Cl)NCc1nn(-c2ccc(OC(F)(F)F)cc2)c2nccc(CO)c12 [Compound 37, (E)-3-Chloro-N-((4-(hydroxymethyl)-1-(4-(trifluoromethoxy)phenyl)-1H-pyrazolo[3,4-b]pyridin-3-yl)methyl)acrylamide] | 3.2 nM | 33 nM | 6.9 nM | 14 nM |
| O=C(NCc1nn(-c2ccc(OC(F)(F)F)cc2)c2nccc(CO)c12)C1=CCC1 [Compound 148, N-((4-(Hydroxymethyl)-1-(4-(trifluoromethoxy)phenyl)-1H-pyrazolo[3,4-b]pyridin-3-yl)methyl)cyclobut-1-enecarboxamide] | 14 nM | 280 nM | 17 nM | 90 nM |
| C=CC(=O)NCc1nn(-c2ccc(OC(F)(F)F)cc2)c2nccc(N3CCC(O)CC3)c12 [Compound 91, N-((4-(4-hydroxypiperidin-1-yl)-1-(4-(trifluoromethoxy)phenyl)-1H-pyrazolo[3,4-b]pyridin-3-yl)methyl)acrylamide] | 28.5 nM | 41000 nM | 44 nM | 66 nM |
| C=C(F)C(=O)N1CC(c2nn(-c3ccc(OC(F)(F)F)cc3)c3nccc(N4CC[C@@H](O)C4=O)c23)C1 [Compound 125, (R)-1-(3-(1-(2-fluoroacryloyl)azetidin-3-yl)-1-(4-(trifluoromethoxy)phenyl)-1H-pyrazolo[3,4-b]pyridin-4-yl)-3-hydroxypyrrolidin-2-one] | 44 nM | 1700 nM | 800 nM | 870 nM |
| C=CC(=O)N1CC(c2nn(-c3ccc(OC(F)(F)F)cc3)c3nccc([C@H](O)CO)c23)C1 [Compound 113, (S)-1-(3-(4-(1,2-Dihydroxyethyl)-1-(4-(trifluoromethoxy)phenyl)-1H-pyrazolo[3,4-b]pyridin-3-yl)azetidin-1-yl)prop-2-en-1-one] | 4.5 nM | 20 nM | 19 nM | 6.5 nM |
| C=CC(=O)NCc1nn(-c2ccc(S(F)(F)(F)(F)F)cc2)c2cccc([C@@H](O)CO)c12 (single isomer, unassigned) [Compound 10, N-((4-(1,2-dihydroxyethyl)-1-(4-(pentafluoro-λ^6-sulfanyl)phenyl)-1H-indazol-3-yl)methyl)acrylamide] | 49 nM | 560 nM | 100 nM | 180 nM |
| C=CC(=O)NCc1nn(-c2ccc(OC(F)(F)F)cc2)c2nccc(N[C@H]3C[C@@H](O)C3)c12 [Compound 143, N-((4-((3-hydroxycyclobutyl)amino)-1-(4-(trifluoromethoxy)phenyl)-1H-pyrazolo[3,4-b]pyridin-3-yl)methyl)acrylamide] | 65 nM | 50000 nM | 16 nM | 65 nM |
| C=C(Cl)C(=O)N1CC(c2nn(-c3ccc(OC(F)(F)F)cc3)c3nccc([C@@H](O)CO)c23)C1 [Compound 110, (R)-2-chloro-1-(3-(4-(1,2-dihydroxyethyl)-1-(4-(trifluoromethoxy)phenyl)-1H-pyrazolo[3,4-b]pyridin-3-yl)azetidin-1-yl)prop-2-en-1-one] | 4.3 nM | 17 nM | 19 nM | 8 nM |
| C=CC(=O)NCc1nn(-c2ccc(OC(F)(F)F)cc2)c2nccc(N3CC(N(C)C)C3)c12 [Compound 107, N-((4-(3-(dimethylamino)azetidin-1-yl)-1-(4-(trifluoromethoxy)phenyl)-1H-pyrazolo[3,4-b]pyridin-3-yl)methyl)acrylamide] | 36 nM | 50000 nM | 280 nM | 960 nM |
| C=C(F)C(=O)N1CC(c2nn(-c3ccc(OC(F)(F)F)cc3)c3nccc(N4CC[C@H](O)C4=O)c23)C1 [Compound 82, (S)-1-(3-(1-(2-fluoroacryloyl)azetidin-3-yl)-1-(4-(trifluoromethoxy)phenyl)-1H-pyrazolo[3,4-b]pyridin-4-yl)-3-hydroxypyrrolidin-2-one] | 4.8 nM | 270 nM | 31 nM | 390 nM |
| C=CC(=O)NCc1nn(-c2ccc(OC(F)(F)F)cc2)c2nccc(-c3cnn(CCS(C)(=O)=O)c3)c12 [Compound 168, N-((4-(1-(2-(methylsulfonyl)ethyl)-1H-pyrazol-4-yl)-1-(4-(trifluoromethoxy)phenyl)-1H-pyrazolo[3,4-b]pyridin-3-yl)methyl)acrylamide] | 49 nM | 50000 nM | 140 nM | 1100 nM |
| C=CC(=O)NCc1nn(-c2ccc(OC(F)(F)F)cc2)c2nccc([C@H]3C[C@@H](O)C3)c12 [Compound 38, N-((4-(cis-3-Hydroxycyclobutyl)-1-(4-(trifluoromethoxy)phenyl)-1H-pyrazolo[3,4-b]pyridin-3-yl)methyl)acrylamide] | 39 nM | 50000 nM | 180 nM | 100 nM |
| C=CC(=O)NCc1nn(-c2ccc(OC(F)(F)F)cc2)c2nccc(CO)c12 [Compound 32, N-((4-(Hydroxymethyl)-1-(4-(trifluoromethoxy)phenyl)-1H-pyrazolo[3,4-b]pyridin-3-yl)methyl)acrylamide] | 25 nM | 220 nM | 13 nM | 57 nM |
| O=C(C#CCO)NCc1nn(-c2ccc(OC(F)(F)F)cc2)c2nccc(CO)c12 [Compound 128, 4-Hydroxy-N-((4-(hydroxymethyl)-1-(4-(trifluoromethoxy)phenyl)-1H-pyrazolo[3,4-b]pyridin-3-yl)methyl)but-2-ynamide] | 3.6 nM | 72 nM | 6.5 nM | 12 nM |
| C=C(F)C(=O)N1CC(c2nn(-c3ccc(OC(F)(F)F)cc3)c3nccc(N4CC(F)(C(N)=O)C4)c23)C1 [Compound 57, 3-Fluoro-1-(3-(1-(2-fluoroacryloyl)azetidin-3-yl)-1-(4-(trifluoromethoxy)phenyl)-1H-pyrazolo[3,4-b]pyridin-4-yl)azetidine-3-carboxamide] | 5.1 nM | 350 nM | 36 nM | 37 nM |
| COC/C=C/C(=O)N1CC(c2nn(-c3ccc(OC(F)(F)F)cc3)c3nccc(CO)c23)C1 [Compound 40, (E)-1-(3-(4-(Hydroxymethyl)-1-(4-(trifluoromethoxy)phenyl)-1H-pyrazolo[3,4-b]pyridin-3-yl)azetidin-1-yl)-4-methoxybut-2-en-1-one] | 13 nM | 66 nM | 16 nM | 48 nM |

Reference: patent US12110276B2 (Genentech, Inc., priority 2021, dated 2024)
